In brackets after ≈: the same amount, converted by molar mass. Where two headings read alike, the source gives them in different places. A value given as a limit tells only on which side of the number the result lay.

These results are taken from publication PMC9977398, “Next-generation membrane-active glycopeptide antibiotics that also inhibit bacterial cell division” (Chemical Science, 2023).

The test system of data set [1] is VRE (VanA phenotype). Further details: method as in PMID 27663982, PMID 24846441, PMID 14972384. The note with it: cited from earlier work.
Data set [2] concerns human erythrocytes. The experiment in a line: Haemolysis assay. It counts as cell-based. The method, then:
To select the lead compounds, the toxicity of 1–10 was tested against human erythrocytes as their hemolytic activity (HC50). The HC50 is determined as the concentration at which 50% of the compound treated cells are lysed. […] The HC50 for compounds 6–8 was also greater than 500 μM. […] Based on the in vitro activity and hemolysis studies, VanQbiph (4) from the aryl-substituted compounds and VanQAmC10 (8) from the alkyl-chain substituted compounds were selected for further investigations. […] VanQAmC10 (8) was additionally non-toxic to RAW 264.7 cells up to 40 μM and was therefore taken forward in vivo investigation.[18]
50 μL of serially diluted compound was added into 96 well microtiter plates. Freshly drawn, heparanized human blood was centrifuged down to obtain the erythrocytes and re-suspended to 5 vol % in PBS (pH 7.4). 150 μL of the erythrocyte suspension was added to the serially diluted compounds (from 500 µM to 2 µM). One set without compound and other with 50 μL of 1 vol % solution of Triton X-100 were kept as controls. The plates were incubated at 37 °C for 1 h followed by centrifugation at 3,500 rpm for 5 min. 100 μL of the supernatant from each well were transferred into fresh microtiter plates, and A540 was measured.
% haemolysis = (A - A0)/(Atotal -A0) × 100, where A is the absorbance of the test well, A 0 the absorbance of the negative controls (without compound), and A total the absorbance of 100 % hemolysis wells (with Triton X -100), all at 540 nm. […]

Data set [3] relates to MRSA, methicillin-resistant S. aureus (ATCC 33591). The experiment in a line: MIC determination, micro-dilution broth. Type of data set: cell-based. The note with it: Staphylococcus aureus; MRSA ATCC 33591; read-out: Minimum inhibitory concentration, MRSA. The method, then: (§1) The increase in the carbon content of substituted moieties from six (1) to seven (2 and 3) to ten (5) to twelve (4), increased activity. […]
(§2) Test compound was assayed in a micro -dilution broth format as per the CLSI guideline. The bacterial freeze dried stock samples were stored at -80 °C. About 5 μL of these stocks were added to 3 mL of the respective broth and the culture was grown for 6 h at 37°C with prior to the experiments. This 6 h grown culture was diluted to give effective cell concentration of 10 5 CFU/mL which was then used for determining MIC. Compounds were serially diluted 2 -fold, in sterile millipore water and 50 μL of these serial dilutions were added to the wells of 96 well plate followed by the addition of about 150 μL of bacterial solution. The plates were then incubated for 18-24 h at 37 °C. The O.D. value at 600 nm was recorded using TECAN (Infinite series, M200 pro) Plate Reade r. Each concentration had triplicate values and the whole experiment was done at least twice and the MIC value was determined by taking the average of triplicate O. D. values for each concentration and plotting it against concentration. The data was then subjected to sigmoidal fitting. From the curve the MIC value was determined, as the point where the O. D. was similar to that of control having no bacteria.
In general terms: Dilution methods test growth across graded concentrations, often in twofold steps.

Data set [4] deals with VRSA 4 (vancomycin-resistant S. aureus). Kind of data set: MIC determination, micro-dilution broth. Type of data set: cell-based. The note with it: Staphylococcus aureus, read-out: Minimum inhibitory concentration, VRSA 4. The method, then:
as §1, §2

Data set [5] concerns VRSA 12 (vancomycin-resistant S. aureus). The experiment in a line: MIC determination, micro-dilution broth. Type of data set: cell-based. To be noted: Staphylococcus aureus, read-out: Minimum inhibitory concentration, VRSA 12. On the procedure:
as §1, §2

Data set [6] deals with VRE 51559 (vancomycin-resistant E. faecium, VanA phenotype, ATCC 51559). Kind of data set: MIC determination, micro-dilution broth. It counts as cell-based. The note with it: Enterococcus; read-out: Minimum inhibitory concentration, VRE 51559. The method, then: as §1, §2
The subject of data set [7] is VRSA 1 (vancomycin-resistant S. aureus). Kind of data set: MIC determination, micro-dilution broth. Type of data set: cell-based. The note with it: Staphylococcus aureus, read-out: Minimum inhibitory concentration, VRSA 1. On the procedure:
as §1, §2

Data set [8] concerns AB R674 (A. baumannii). Kind of data set: MIC determination, micro-dilution broth. It counts as cell-based. To be noted: Acinetobacter baumannii; read-out: Minimum inhibitory concentration, AB R674. On the procedure:
as §1, §2

For data set [9], the system named is VRE 51575 (vancomycin-resistant E. faecalis, VanB phenotype, ATCC 51575). The experiment in a line: MIC determination, micro-dilution broth. It counts as cell-based. To be noted: Enterococcus; read-out: Minimum inhibitory concentration, VRE 51575. The method, then: as §1, §2
The test system of data set [10] is PA R590 (MDR strain of P. aeruginosa). Kind of data set: MIC determination, micro-dilution broth. It counts as cell-based. The note with it: Pseudomonas aeruginosa; read-out: Minimum inhibitory concentration, PA R590. On the procedure: as §1, §2
The subject of data set [11] is AB 1425 (A. baumannii MTCC 1425). The experiment in a line: MIC determination, micro-dilution broth. It counts as cell-based. To be noted: Acinetobacter baumannii, MTCC1425; read-out: Minimum inhibitory concentration, AB 1425. On the procedure:
as §1, §2

For the compound `CN[C@H](CC(C)C)C(=O)N[C@H]1C(=O)N[C@@H](CC(N)=O)C(=O)N[C@H]2C(=O)N[C@H]3C(=O)N[C@H](C(=O)N[C@H](C(=O)O)c4cc(O)cc(O)c4-c4cc3ccc4O)[C@H](O[C@H]3C[C@](C)(N)[C@@H](O)[C@H](C)O3)c3ccc(c(Cl)c3)Oc3cc2cc(c3O[C@@H]2O[C@H](CO)[C@@H](O)[C@H](O)[C@H]2O[C@H]2C[C@](C)(NCc3ccc(-c4ccc(Cl)cc4)cc3)[C@@H](O)[C@H](C)O2)Oc2ccc(cc2Cl)[C@H]1O` [oritavancin], the “MIC against VRE (VanA phenotype)” value in data set [1] is 0.14 µM (≈ 0.251 µg/mL).
By HC50 is commonly meant the concentration giving 50% haemolysis. The low end stands for stronger haemolysis, the high end for weaker haemolysis. In turn, `CNC(CC(C)C)C(=O)NC1C(=O)NC(CC(N)=O)C(=O)NC2C(=O)NC3C(=O)NC(C(=O)NC(C(=O)NCCC[N+](C)(C)Cc4ccc(C(F)(F)F)cc4)c4cc(O)cc(O)c4-c4cc3ccc4O)C(O)c3ccc(c(Cl)c3)Oc3cc2cc(c3OC2OC(CO)C(O)C(O)C2OC2CC(C)(N)C(O)C(C)O2)Oc2ccc(cc2Cl)C1O` (stereo not drawn) [VanQphCF3 (3)] yielded an HC50 in data set [2] (human, 1 h, pH 7.4) above 500 µM. The MIC in [3] is 1 µM; in [4], 15.8 µM; in [5], above 30 µM; in [6] it was above 30 µM; in data set [7] it was above 30 µM; in data set [8] it was 24.6 µM. The MIC in data set [9] is above 30 µM; in data set [10], 24.6 µM; in data set [11], above 30 µM.
On to `CNC(CC(C)C)C(=O)NC1C(=O)NC(CC(N)=O)C(=O)NC2C(=O)NC3C(=O)NC(C(=O)NC(C(=O)NCCC[N+](C)(C)Cc4ccc(C)cc4)c4cc(O)cc(O)c4-c4cc3ccc4O)C(O)c3ccc(c(Cl)c3)Oc3cc2cc(c3OC2OC(CO)C(O)C(O)C2OC2CC(C)(N)C(O)C(C)O2)Oc2ccc(cc2Cl)C1O` (stereo not drawn) [VanQtol (2)], for which the HC50 in data set [2] (human, 1 h, pH 7.4) was above 500 µM. The MIC is 1 µM in data set [3]; 16 µM in data set [4]; above 30 µM in data set [5]; above 30 µM in data set [6]; above 30 µM in data set [7]; 25.3 µM in data set [8]. The MIC in [9], in [10] and in [11] was above 30 µM throughout.
With `CCCCCCNC(=O)C[N+](C)(C)CCCNC(=O)C1NC(=O)C2NC(=O)C(NC(=O)C3NC(=O)C(CC(N)=O)NC(=O)C(NC(=O)C(CC(C)C)NC)C(O)c4ccc(c(Cl)c4)Oc4cc3cc(c4OC3OC(CO)C(O)C(O)C3OC3CC(C)(N)C(O)C(C)O3)Oc3ccc(cc3Cl)C2O)c2ccc(O)c(c2)-c2c(O)cc(O)cc21` (stereo not drawn) [VanQAmC6 (6)], in data set [2] (human, 1 h, pH 7.4), the HC50 was above 500 µM. The MIC was 0.8 µM in data set [3]; 6.3 µM in [4]; above 30 µM in data set [5]; 25 µM in [6]; above 30 µM in data set [7]; 12.5 µM in data set [8]. In addition, the MIC is above 30 µM in [9], 12.5 µM in data set [10] and 25 µM in data set [11].
In [2] (human, 1 h, pH 7.4), `CNC(CC(C)C)C(=O)NC1C(=O)NC(CC(N)=O)C(=O)NC2C(=O)NC3C(=O)NC(C(=O)NC(C(=O)NCCC[N+](C)(C)Cc4ccccc4)c4cc(O)cc(O)c4-c4cc3ccc4O)C(O)c3ccc(c(Cl)c3)Oc3cc2cc(c3OC2OC(CO)C(O)C(O)C2OC2CC(C)(N)C(O)C(C)O2)Oc2ccc(cc2Cl)C1O` (stereo not drawn) [VanQph (1)] had an HC50 above 500 µM. The MIC in data set [3] is 1 µM; in data set [4] it was above 30 µM; in data set [5], above 30 µM; in [6], above 30 µM; in [7], above 30 µM; in data set [8], 25.5 µM. The MIC in data set [9], in data set [10] and in [11] was above 30 µM in each case.
With `CCCCCCCCCCCCNC(=O)C[N+](C)(C)CCCNC(=O)C1NC(=O)C2NC(=O)C(NC(=O)C3NC(=O)C(CC(N)=O)NC(=O)C(NC(=O)C(CC(C)C)NC)C(O)c4ccc(c(Cl)c4)Oc4cc3cc(c4OC3OC(CO)C(O)C(O)C3OC3CC(C)(N)C(O)C(C)O3)Oc3ccc(cc3Cl)C2O)c2ccc(O)c(c2)-c2c(O)cc(O)cc21` (stereo not drawn) [VanQAmC12 (9)], the HC50 result is “caused hemolysis” in data set [2] and 350 µM in data set [2] (human, 1 h, pH 7.4). The MIC in data set [3] amounted to 3.12 µM; in [4], 0.7 µM; in data set [5] it was 3 µM; in data set [6], 1.5 µM; in data set [7] it was 1.5 µM; in [8] it was 6.3 µM. The MIC was determined as 3.1 µM in [9], 6.3 µM in [10] and 6.3 µM in [11].
`CNC(CC(C)C)C(=O)NC1C(=O)NC(CC(N)=O)C(=O)NC2C(=O)NC3C(=O)NC(C(=O)NC(C(=O)NCCC[N+](C)(C)Cc4cccc5ccccc45)c4cc(O)cc(O)c4-c4cc3ccc4O)C(O)c3ccc(c(Cl)c3)Oc3cc2cc(c3OC2OC(CO)C(O)C(O)C2OC2CC(C)(N)C(O)C(C)O2)Oc2ccc(cc2Cl)C1O` (stereo not drawn) [VanQnaph (5)] showed an HC50 in data set [2] (human, 1 h, pH 7.4) above 500 µM. Moreover, the MIC in data set [3] is 1 µM; in data set [4], 3.9 µM; in [5] it was above 30 µM; in data set [6], 25 µM; in [7], above 30 µM; in data set [8], 24.8 µM. The MIC was 25 µM in data set [9], above 30 µM in data set [10] and above 30 µM in [11].
As to `CCCCCCCCNC(=O)C[N+](C)(C)CCCNC(=O)C1NC(=O)C2NC(=O)C(NC(=O)C3NC(=O)C(CC(N)=O)NC(=O)C(NC(=O)C(CC(C)C)NC)C(O)c4ccc(c(Cl)c4)Oc4cc3cc(c4OC3OC(CO)C(O)C(O)C3OC3CC(C)(N)C(O)C(C)O3)Oc3ccc(cc3Cl)C2O)c2ccc(O)c(c2)-c2c(O)cc(O)cc21` (stereo not drawn) [VanQAmC8 (7)], the HC50 in data set [2] (human, 1 h, pH 7.4) is above 500 µM. Also, the MIC was 0.8 µM in data set [3]; 3.1 µM in [4]; above 30 µM in data set [5]; 12.5 µM in data set [6]; 3.1 µM in data set [7]; 12.5 µM in [8]. The values for the MIC in data set [9], in data set [10] and in data set [11] were 25 µM, 6.3 µM and 12.5 µM, respectively.
For the compound `CCCCCCCCCCCCCCNC(=O)C[N+](C)(C)CCCNC(=O)C1NC(=O)C2NC(=O)C(NC(=O)C3NC(=O)C(CC(N)=O)NC(=O)C(NC(=O)C(CC(C)C)NC)C(O)c4ccc(c(Cl)c4)Oc4cc3cc(c4OC3OC(CO)C(O)C(O)C3OC3CC(C)(N)C(O)C(C)O3)Oc3ccc(cc3Cl)C2O)c2ccc(O)c(c2)-c2c(O)cc(O)cc21` (stereo not drawn) [VanQAmC14 (10)], the HC50 entry in [2] is “caused hemolysis”; in [2] (human, 1 h, pH 7.4) it was 150 µM. The MIC in data set [3] was 6.25 µM; in [4], 1.5 µM; in [5] it was 3 µM; in [6] it was 1.5 µM; in data set [7], 3 µM; in data set [8] it was 12.5 µM. For the same compound, the MIC in [9] turned out to be 3.1 µM; in data set [10] it was 6.3 µM; in data set [11], 6.3 µM.
Turning to `CN[C@H]1C(=O)N[C@@H]2Cc3ccc(cc3)Oc3cc4cc(c3O[C@@H]3O[C@H](C(=O)O)[C@@H](O)[C@H](O)[C@H]3NC(=O)CCCCCCCCC(C)C)Oc3ccc(cc3Cl)[C@@H](O)[C@@H]3NC(=O)[C@H](NC(=O)[C@@H]4NC(=O)[C@@H](NC2=O)c2cc(cc(O)c2Cl)Oc2cc1ccc2O)c1ccc(O)c(c1)-c1c(O[C@H]2O[C@H](CO)[C@@H](O)[C@H](O)[C@@H]2O)cc(O)cc1[C@@H](C(=O)NCCCN(C)C)NC3=O` [dalbavancin], the “MIC against VRE (VanA phenotype)” value in data set [1] was 18 µM (≈ 32.7 µg/mL).
